One series concerns HCT-116. The series is described as follows: Inhibitory concentration against human HCT116 colon cancer cell line. Type of series: functional, cell-based.
A further series deals with Bel-7402. Briefly: Inhibitory concentration against human Bel-7402 liver cancer cell line. Type of series: functional, cell-based.
A short description of series [1]: Lethal toxicity against mouse tumor sarcoma-180 model after intraperitoneal administration of 75 mg/kg dose expressed as number of deaths out of […]. More on the design: dose 75 mg/kg, route intraperitoneal. Type of series: organism-based. The conditions noted are these: in vivo, ip.
For series [2], the system named is Mus musculus. Briefly: Percent change in body-weight of mouse tumor sarcoma-180 model after intraperitoneal administration of 75 mg/kg dose. Type of series: functional.
Series [3] has as its system Mus musculus. The series is described as follows: Percent tumor-weight inhibition in mouse tumor sarcoma-180 model after intraperitoneal administration of 75 mg/kg dose in comparison with control mice. Format: functional.
Series [4] has as its system Mus musculus. The series is described as follows: Average tumor weight in mouse tumor sarcoma-180 model after intraperitoneal administration of 75 mg/kg dose. Format: functional.
Series [5] in a line: Lethal toxicity against mouse tumor sarcoma-180 model after intraperitoneal administration of 2.5 mg/kg dose expressed as number of deaths out of 10 mice. Format: organism-based. Also on record: dose 2.5 mg/kg, route intraperitoneal. As to conditions: in vivo, ip.
Series [6] relates to Mus musculus. The series is described as follows: Percent tumor-weight inhibition in mouse tumor sarcoma-180 model after intraperitoneal administration of 2.5 mg/kg dose in comparison with control mice. Format: functional.
Series [7] has as its system Mus musculus. Briefly: Average tumor weight in mouse tumor sarcoma-180 model after intraperitoneal administration of 2.5 mg/kg dose. Type of series: functional.
Series [8] deals with Mus musculus. Briefly: Percent change in body-weight of mouse tumor sarcoma-180 model after intraperitoneal administration of 2.5 mg/kg dose. Format: functional.
Series [9] in a line: Lethal toxicity against mouse tumor sarcoma-180 model after intraperitoneal administration of 5 mg/kg dose expressed as number of deaths out of 10 mice. Type of series: organism-based. More on the design: dose 5 mg/kg, route intraperitoneal. As to conditions: in vivo, ip.
Series [10] deals with Mus musculus. Briefly: Percent change in body-weight of mouse tumor sarcoma-180 model after intraperitoneal administration of 5 mg/kg dose. Format: functional.
Series [11] concerns Mus musculus. The series is described as follows: Percent tumor-weight inhibition in mouse tumor sarcoma-180 model after intraperitoneal administration of 5 mg/kg dose in comparison with control mice. Type of series: functional.
Series [12] has as its system Mus musculus. Briefly: Average tumor weight in mouse tumor sarcoma-180 model after intraperitoneal administration of 5 mg/kg dose. Format: functional.

The values that follow come from ChEMBL document CHEMBL1143521, “Synthesis and antitumor activity of 7-ethyl-9-alkyl derivatives of camptothecin” (Bioorg Med Chem Lett, 2005).

As usually defined, the IC50 is the concentration that gives 50% inhibition. The low end stands for greater potency, the high end for weaker potency.

In the case of `C=CCc1c(OC)ccc2nc3c(c(CC)c12)Cn1c-3cc2c(c1=O)COC(=O)[C@]2(O)CC`, the IC50 with HCT-116 was 68 nM; in the series on Bel-7402, 2160 nM.
As to `O=c1[nH]cc(F)c(=O)[nH]1` [FLUOROURACIL], in [1], the Lethal toxicity was found to be 0. The BWC in the series with Mus musculus [2] was determined as 74%. In the series on Mus musculus [3], this compound gave a TWI of 53.9%. The same compound returned a TW with Mus musculus [4] of 1.52.
Take `CCCc1c(O)ccc2nc3c(c(CC)c12)Cn1c-3cc2c(c1=O)COC(=O)[C@]2(O)CC`: the IC50 in the series with HCT-116 turned out to be 12 nM; in the series with Bel-7402 it was 3010 nM.
Regarding `C=CCc1c(O)ccc2nc3c(c(CC)c12)Cn1c-3cc2c(c1=O)COC(=O)[C@]2(O)CC`, in [5], the Lethal toxicity is 0. The values for the IC50 with HCT-116 and with Bel-7402 were 14 nM and 2750 nM, respectively. This compound displayed a TWI in the series on Mus musculus [6] of 81.2%. Besides, the TW in the series on Mus musculus [7] is given as 0.62. The same compound showed a BWC in the series with Mus musculus [8] of 9%.
In the case of `CCCc1c(OC)ccc2nc3c(c(CC)c12)Cn1c-3cc2c(c1=O)COC(=O)[C@]2(O)CC`, the results for the IC50 in the series on HCT-116 and in the series on Bel-7402 were 153 nM and 3840 nM, respectively.
On to `CCc1c(OC)ccc2nc3c(c(CC)c12)Cn1c-3cc2c(c1=O)COC(=O)[C@]2(O)CC`, for which the IC50 came out at 61 nM in the series with HCT-116 and 2400 nM in the series on Bel-7402.
On to `CC[C@@]1(O)C(=O)OCc2c1cc1n(c2=O)Cc2cc3c(CN(C)C)c(O)ccc3nc2-1` [TOPOTECAN], for which the IC50 with HCT-116 came out at 100 nM; with Bel-7402 it was 3980 nM.
`CCc1c2c(nc3ccc(O)cc13)-c1cc3c(c(=O)n1C2)COC(=O)[C@]3(O)CC` [7-ETHYL-10-HYDROXYCAMPTOTHECIN] yielded a Lethal toxicity in [9] of 0. The IC50 in the series with HCT-116 amounted to 7 nM; with Bel-7402 it was 3190 nM. The compound further gave a BWC in the series on Mus musculus [10] of 45%. The compound also gave a TWI with Mus musculus [11] of 41.5%. Besides, the TW in the series on Mus musculus [12] is 1.93.
Turning to `CC[C@@]1(O)C(=O)OCc2c1cc1n(c2=O)Cc2cc3cc(O)ccc3nc2-1` [HYDROXYCAMPTOTHECIN], the IC50 was 148 nM in the series with HCT-116 and 2470 nM in the series on Bel-7402.
For `CCc1c(O)ccc2nc3c(c(CC)c12)Cn1c-3cc2c(c1=O)COC(=O)[C@]2(O)CC`, the IC50 came out at 23 nM with HCT-116 and 2010 nM in the series with Bel-7402.
